# Results reported in patent US11612604B2, “Methods of treating cancer with PLK4 inhibitors” (LUDWIG INSTITUTE FOR CANCER RESEARCH LTD, priority 2017, dated 2023).
# Target: T1, PLK4 (Homo sapiens, UniProt O00444)
# T1 sequence (O00444 1-970): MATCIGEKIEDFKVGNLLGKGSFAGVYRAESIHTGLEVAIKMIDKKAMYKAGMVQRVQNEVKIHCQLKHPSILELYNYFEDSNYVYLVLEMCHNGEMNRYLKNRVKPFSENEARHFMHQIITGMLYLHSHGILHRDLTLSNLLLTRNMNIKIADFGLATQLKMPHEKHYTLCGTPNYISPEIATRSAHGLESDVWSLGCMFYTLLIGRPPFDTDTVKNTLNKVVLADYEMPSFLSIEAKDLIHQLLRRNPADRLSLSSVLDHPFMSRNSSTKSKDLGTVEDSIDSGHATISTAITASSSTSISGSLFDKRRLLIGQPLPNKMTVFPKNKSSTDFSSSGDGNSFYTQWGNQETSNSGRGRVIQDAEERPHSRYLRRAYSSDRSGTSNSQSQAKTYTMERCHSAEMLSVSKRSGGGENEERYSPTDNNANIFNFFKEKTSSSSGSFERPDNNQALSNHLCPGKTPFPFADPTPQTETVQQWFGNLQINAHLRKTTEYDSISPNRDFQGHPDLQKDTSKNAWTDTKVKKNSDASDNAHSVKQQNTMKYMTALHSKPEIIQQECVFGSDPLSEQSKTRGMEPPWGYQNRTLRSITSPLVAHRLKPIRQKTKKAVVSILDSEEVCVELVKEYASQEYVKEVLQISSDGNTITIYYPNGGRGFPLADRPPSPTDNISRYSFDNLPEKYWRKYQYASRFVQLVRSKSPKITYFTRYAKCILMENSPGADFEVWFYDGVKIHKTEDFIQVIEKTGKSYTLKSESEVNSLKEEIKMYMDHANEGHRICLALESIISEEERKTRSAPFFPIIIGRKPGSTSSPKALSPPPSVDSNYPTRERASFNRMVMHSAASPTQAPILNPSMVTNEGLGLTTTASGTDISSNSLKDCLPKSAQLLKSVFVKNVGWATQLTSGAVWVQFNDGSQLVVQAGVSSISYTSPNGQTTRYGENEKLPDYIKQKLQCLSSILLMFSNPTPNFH
# Assay: Activity (IC50) of the Table 1 compounds as PLK4 inhibitors
# Type: biochemical
# Conditions: Table 1, IC50 class
row,IC50 [nM],SMILES
1,< 100,COc1c(Nc2cc(C)[nH]n2)nc(Sc2ccc(S(=O)(=O)Cc3ccc([N+](=O)[O-])cc3)cc2)nc1N1CCN(CCN(C)C)CC1
2,< 100,CCS(=O)(=O)c1ccc(Sc2nc(Cc3cc(C)[nH]n3)c(OC)c(N3CCOC[C@@H]3C)n2)c(Cl)c1
3,< 100,Cc1cc(Nc2nc(Sc3ccc(S(=O)(=O)Cc4ccccc4)cc3)nc(N3CCN(CCN(C)C)CC3)c2C)n[nH]1
4,< 100,COc1c(Nc2cc(C)[nH]n2)nc(Sc2ccc(S(=O)(=O)C(C)(C)c3c(F)c(F)c(F)c(F)c3F)cc2F)nc1N1CCN(CCN(C)C)CC1
5,100 to 1000,COc1c(Nc2cc(C)[nH]n2)nc(Sc2ccc(NC(C)=O)cc2)nc1C1CCN(CCN2CCN(C)CC2)CC1
6,< 100,CCCOc1c(Nc2cc(C)[nH]n2)nc(Sc2ccc(S(=O)(=O)Cc3ccccc3)cc2)nc1N1CCN(CCN(C)C)CC1
7,< 100,COc1c(Nc2cc[nH]n2)nc(Sc2ccc(S(=O)(=O)Cc3ccccc3)cc2)nc1N1CCN(CCN(C)C)CC1
8,< 100,COC(=O)c1cccc(CS(=O)(=O)c2ccc(Sc3nc(Nc4cc(C)[nH]n4)c(OC)c(N4CCOCC4)n3)c(F)c2)c1F
9,< 100,CCNc1nc(Sc2ccc(NC(=O)C3CC3)cc2)nc(Nc2cc(C)[nH]n2)c1OC
10,< 100,COc1c(Nc2cc(C)[nH]n2)nc(Sc2ccc(S(=O)(=O)Cc3cc(F)ccc3F)cc2)nc1N1CCN(CCN(C)C)CC1
11,< 100,COc1c(Nc2cc(C)[nH]n2)nc(Sc2ccc(S(=O)(=O)Cc3cccc([N+](=O)[O-])c3Cl)cc2)nc1N1CCN(CCN(C)C)CC1
12,< 100,CC(=O)Nc1ccc(Sc2nc(Nc3cc(C)[nH]n3)c(C)c(N3CCOC[C@@H]3C)n2)cc1
13,< 100,COc1c(Nc2cc(C)[nH]n2)nc(Sc2ccc(S(=O)(=O)Cc3cccc(N)c3F)cc2F)nc1N1CCOCC1
14,< 100,CNC(=O)Nc1ccc(Sc2nc(Nc3cc(C)[nH]n3)c(C)c(N3CCN(C(=O)COC)CC3)n2)cc1
15,< 100,COc1ccc(CS(=O)(=O)c2ccc(Sc3nc(Nc4cc(C)[nH]n4)c(OC)c(N4CCOCC4)n3)c(F)c2)cc1
16,< 100,COc1c(Nc2cc(C)[nH]n2)nc(Sc2ccc(S(=O)(=O)Cc3ccccc3)cc2)nc1N1CC2CCC(C1)O2
17,< 100,COC(=O)CN1CCN(c2nc(Sc3ccc(NC(C)=O)cc3)nc(Nc3cc(C)[nH]n3)c2OC)CC1
18,< 100,COc1c(Nc2cc(C)[nH]n2)nc(Sc2ccc(S(=O)(=O)C(C)(C)c3nccs3)cc2)nc1N1CCN(CCN(C)C)CC1
19,< 100,COc1c(Nc2cc(C)[nH]n2)nc(Sc2ccc(S(=O)(=O)Cc3cccc(C)c3)cc2)nc1N1CCN(CCN(C)C)CC1
20,< 100,COc1c(Nc2cc(C)[nH]n2)nc(Sc2ccc(NC(C)=O)cc2)nc1N1CC=C(F)CC1
21,< 100,COc1c(Nc2cc(C)[nH]n2)nc(Sc2ccc(NC(=O)C3CC3)cc2)nc1N1CCC(C(=O)CN(C)C)CC1
22,< 100,COc1c(Nc2cc(C)[nH]n2)nc(Sc2ccc(NC(=O)Cc3cccc([N+](=O)[O-])c3F)cc2F)nc1N1CCOCC1
23,< 100,COc1c(Nc2cc(C)[nH]n2)nc(Sc2ccc(S(=O)(=O)C(C)(C)c3cccc([N+](=O)[O-])c3F)cc2F)nc1N1CCN(CC(=O)N(C)C)CC1

row,IC50 [nM],SMILES
1,< 100,COc1c(Cc2cc(C)[nH]n2)nc(Sc2ccc(S(=O)(=O)Cc3cccc([N+](=O)[O-])c3)cc2F)nc1N1CCOC[C@H]1C
2,< 100,CCOc1c(Nc2cc(C)[nH]n2)nc(Sc2ccc(NC(=O)C3CC3)cc2)nc1N1CCC(O)CC1
3,< 100,Cc1cc(Nc2nc(Sc3ccc(N)cc3)nc(N3CCC(O)CC3)c2C)n[nH]1
4,< 100,COc1c(Nc2cc(C)[nH]n2)nc(Sc2ccc(NC(C)=O)cc2)nc1N1CCN(CC(=O)O)CC1
5,< 100,COc1c(Nc2cc(C)[nH]n2)nc(Sc2ccc(S(=O)(=O)Cc3ccccc3)cc2)nc1N1CCCCC1
6,< 100,COc1c(Nc2cc(C)[nH]n2)nc(Sc2ccc(S(=O)(=O)C(C)(C)c3c(F)c(F)cc(F)c3F)cc2F)nc1N1CCC(N(C)C(C)=O)CC1
7,< 100,CC(=O)Nc1ccc(Sc2nc(Nc3cc(C)[nH]n3)c(C)c(N3CCN(C(C)C)CC3)n2)cc1
8,< 100,Cc1ccc(Sc2nc(Nc3cc(C)[nH]n3)c(C)c(N3CCC(O)CC3)n2)cc1
9,< 100,COC(=O)c1cccc(CS(=O)(=O)c2ccc(Sc3nc(Nc4cc(C)[nH]n4)c(OC)c(N4CCN(CCN(C)C)CC4)n3)cc2)c1
10,< 100,COc1c(Nc2cc(C)[nH]n2)nc(Sc2ccc(NC(C)=O)cc2)nc1N1CCN(CC(=O)N2CCCCC2)CC1
11,< 100,COc1c(Nc2cc(C)[nH]n2)nc(Sc2ccc(S(=O)(=O)C(C)(C)c3c(F)c(F)cc(F)c3F)cc2F)nc1N1CC[C@H](N(C)C)C1
12,< 100,COCCNc1nc(Sc2ccc(NC(=O)C3CCCC3)cc2)nc(Nc2cc(C)[nH]n2)c1OC
13,< 100,Cc1cc(Nc2nc(Sc3ccccc3)nc(N(C)C)c2C)n[nH]1
14,< 100,CCN(CC)c1nc(Sc2ccc(S(=O)(=O)Cc3ccccc3)cc2)nc(Nc2cc(C)[nH]n2)c1OC
15,< 100,COc1c(Nc2cc(C)[nH]n2)nc(Sc2ccc(NC(C)=O)cc2)nc1N1CCC(N)CC1
16,< 100,COc1c(Nc2cc(C)[nH]n2)nc(Sc2ccc(CC(=O)C3CC3)cc2)nc1N1CCC(O)CC1
17,< 100,COCCN1CCN(c2nc(Sc3ccc(NC(=O)C4CC4)cc3)nc(Nc3cc(C)[nH]n3)c2C)CC1
18,< 100,Cc1cc(Nc2nc(Sc3ccc(NC(=O)C4CC4)cc3)nc(Cl)c2C)n[nH]1
19,< 100,CC(=O)Nc1ccc(Sc2nc(Nc3cc(C)[nH]n3)c(C)c(N3CCN(CCN4CCCCC4)CC3)n2)cc1
20,< 100,COc1c(Nc2cc(C)[nH]n2)nc(Sc2ccc(NC(N)=O)cc2)nc1N1CCN(CCN(C)C)CC1
21,< 100,COc1c(Nc2cc(C)[nH]n2)nc(Sc2ccc(S(=O)(=O)Cc3cccc(C(C)=O)c3)cc2)nc1N1CCN(CCN(C)C)CC1
22,< 100,CCS(=O)(=O)c1ccc(Sc2nc(Nc3cc(C)[nH]n3)c(OC)c(N3CCC(CCN4C5CCCC4CCC5)CC3)n2)cc1
23,< 100,Cc1cc(Nc2nc(Sc3ccc(NC(=O)C4CCCC4)cc3)nc(N(C)C(C)C)c2C)n[nH]1

row,IC50 [nM],SMILES
1,< 100,CNc1ccc(Sc2nc(Nc3cc(C)[nH]n3)c(C)c(N3CCCCC3)n2)cc1
2,< 100,Cc1cc(Nc2nc(Sc3ccc(NC(=O)C4CCCC4)cc3)nc(N3CCN(CCN(C)C)CC3)c2C)n[nH]1
3,< 100,COc1ccc(CS(=O)(=O)c2ccc(Sc3nc(Nc4cc(C)[nH]n4)c(OC)c(N4CCCCC4)n3)cc2)cc1
4,< 100,COc1c(Nc2cc(C)[nH]n2)nc(Sc2ccc(S(=O)(=O)Cc3cccc(I)c3F)cc2F)nc1N1CCOCC1
5,< 100,Cc1cc(Nc2nc(Sc3ccc(NC(=O)C4CC4)cc3)nc(N3CCCCC3)c2C)n[nH]1
6,< 100,CNC1CCN(c2nc(Sc3ccc(S(=O)(=O)C(C)(C)c4cccc([N+](=O)[O-])c4F)cc3F)nc(Nc3cc(C)[nH]n3)c2OC)CC1
7,< 100,COc1c(Nc2cc(C)[nH]n2)nc(Sc2ccc(S(=O)(=O)Cc3cccc(Cl)c3F)cc2F)nc1N1CCOCC1
8,< 100,COc1c(Nc2cc(C)[nH]n2)nc(Sc2ccc(S(=O)(=O)C(C)(C)c3c(F)c(F)cc(F)c3F)cc2F)nc1N1CCC(CCN)CC1
9,< 100,CCN(C)CCN1CCN(c2nc(Sc3ccc(NC(C)=O)cc3)nc(Nc3cc(C)[nH]n3)c2OC)CC1
10,< 100,CC(=O)Nc1ccc(Sc2nc(Nc3cc(C)[nH]n3)c(C)c(N(C)C)n2)cc1
11,< 100,COc1c(Nc2cc(C)[nH]n2)nc(Sc2ccc(S(=O)(=O)Cc3ccccc3C(F)(F)F)cc2)nc1N1CCN(CCN(C)C)CC1
12,< 100,Cc1cc(Nc2nc(Sc3ccc(NC(=O)C4CC4)cc3)nc(N(C)C(C)C)c2C)n[nH]1
13,< 100,COc1c(Nc2cc(C)[nH]n2)nc(Sc2ccc(S(C)(=O)=O)cc2F)nc1N1CCC(CCN(C)C)CC1
14,< 100,COc1c(Nc2cc(C)[nH]n2)nc(Sc2ccc(NC(C)=O)cc2)nc1N1CCN(CCN(C)C)CC1
15,< 100,CC(=O)Nc1ccc(Sc2nc(Nc3cc(C)[nH]n3)c(C)c(N3CCC(C)CC3)n2)cc1
16,< 100,Cc1cc(Nc2nc(Sc3ccc(NC(=O)C4CCCC4)cc3)nc(N3CCOCC3)c2C)n[nH]1
17,< 100,COc1c(Nc2cc(C)[nH]n2)nc(Sc2ccc(S(=O)(=O)C(C)(C)c3cc(F)cc(Cl)c3F)cc2F)nc1N1CCOCC1
18,< 100,COc1c(Nc2cc(C)[nH]n2)nc(Sc2ccc(S(=O)(=O)C(C)(C)c3c(F)c(F)cc(F)c3F)cc2F)nc1N1CCC(N)CC1
19,< 100,COc1c(Nc2cc(C)[nH]n2)nc(Sc2ccc(S(=O)(=O)C3(c4cccc([N+](=O)[O-])c4F)CC3)cc2F)nc1N1CCC(NC(=O)C(F)(F)F)CC1
20,< 100,COCC(=O)N1CCN(c2nc(Sc3ccc(NC(=O)C4CCCC4)cc3)nc(Nc3cc(C)[nH]n3)c2C)CC1
21,< 100,COc1c(Nc2cc(C)[nH]n2)nc(Sc2ccc(S(=O)(=O)C(C)(C)c3cccc([N+](=O)[O-])c3F)cc2F)nc1N1CCC(C(N)=O)CC1
